From patent publication US20250230155A1 (Vanderbilt University, priority 2021, published 2025)

Biological target: T1, human mAChR M4 (Homo sapiens, UniProt P08173)
T1 construct: expressed in transfected cells
T1 sequence (P08173 1-479): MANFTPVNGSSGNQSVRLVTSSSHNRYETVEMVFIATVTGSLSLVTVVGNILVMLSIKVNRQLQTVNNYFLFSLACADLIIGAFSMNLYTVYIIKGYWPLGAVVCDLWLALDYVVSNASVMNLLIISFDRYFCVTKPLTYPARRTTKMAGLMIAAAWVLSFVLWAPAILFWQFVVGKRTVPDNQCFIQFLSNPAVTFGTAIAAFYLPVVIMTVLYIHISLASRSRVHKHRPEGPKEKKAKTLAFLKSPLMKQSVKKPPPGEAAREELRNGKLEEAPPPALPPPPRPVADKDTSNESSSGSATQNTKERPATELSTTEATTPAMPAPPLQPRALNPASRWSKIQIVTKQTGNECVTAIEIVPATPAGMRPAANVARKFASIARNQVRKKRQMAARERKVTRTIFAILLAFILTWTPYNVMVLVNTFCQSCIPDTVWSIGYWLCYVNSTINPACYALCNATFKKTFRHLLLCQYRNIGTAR
Assay: mAChR M4 cell-based functional assay (calcium mobilization, CHO-K1 hM4-Gqi5 cells)
Conditions: for EC50: positive allosteric modulator activity, increase in the EC20 acetylcholine response, CHO-K1 hM4-Gqi5 cells, read-out: Human M4 EC50; for Emax at 30 µM: CHO-K1, % ACh maximum at 30 μM, human M4
In short: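 CHO-K1 cells stably expressing human M4 with chimeric Gqi5, loaded with Fluo-4 AM; compounds given as 11-point 1:3 curves and calcium flux read on FDSS at 1 Hz. Acetylcholine EC20 added at 144 s, EC80 at 230 s; agonist, PAM (EC20 potentiation) and antagonist (EC80 inhibition) EC50/Emax from four-parameter fits.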

| Structure (SMILES) | EC50 [nM] | Emax at 30 µM [%] | Emax (CHO-K1) [%] |
| --- | --- | --- | --- |
| Cc1cnc2c(c1)CN(c1nnc(C#N)cc1C)CC2 [Example 305, 5-methyl-6-(3-methyl-7,8-dihydro-1,6-naphthyridin-6(5H)-yl)pyridazine-3-carbonitrile] | 537 |  | 105 |
| Cc1nc(C)c(C)c(N2CCc3ncc(C(F)(F)F)cc3C2)n1 [compound 235, 3-(trifluoromethyl)-6-(2,5,6-trimethylpyrimidin-4-yl)-5,6,7,8-tetrahydro-1,6-naphthyridine] | 350 | 87 |  |
| Cc1c(C#N)nnc(N2CCc3ncc(-c4cc(F)cnc4Cl)cc3C2)c1C [compound 53, 6-[3-(2-chloro-5-fluoro-3-pyridyl)-7,8-dihydro-5H-1,6-naphthyridin-6-yl]-4,5-dimethyl-pyridazine-3-carbonitrile] | 479 | 70 |  |
| COc1ccc(CNc2cnc3c(c2)CN(c2ncc(C#N)cc2C)CC3)cc1F [Example 5] | 2400 | 63 |  |
| Cc1nc(Cl)c(C)c(N2Cc3cc(-c4cn(C)nc4C)cnc3C(C)(C)C2)n1 [compound 238, 6-(6-chloro-2,5-dimethylpyrimidin-4-yl)-3-(1,3-dimethyl-1H-pyrazol-4-yl)-8,8-dimethyl-5,6,7,8-tetrahydro-1,6-naphthyridine] | 819 | 36 |  |
| Cc1cc(C(=O)N2CCCC2)nnc1N1CCc2ncc(-n3cccn3)cc2C1 [Example 530, (6-(3-(1H-pyrazol-1-yl)-7,8-dihydro-1,6-naphthyridin-6(5H)-yl)-5-methylpyridazin-3-yl)(pyrrolidin-1-yl)methanone] | 3030 | 81 |  |
| Cc1cc(C#N)cnc1N1CCc2ncc(OCCOc3ccccc3F)cc2C1 [Example 429, 6-(3-(2-(2-fluorophenoxy)ethoxy)-7,8-dihydro-1,6-naphthyridin-6(5H)-yl)-5-methylnicotinonitrile] | 2520 | 57 |  |

More lines, in order of falling EC50, values ahead:

| EC50 [nM] | Emax at 30 µM [%] | Structure (SMILES) | Emax (CHO-K1) [%] |
| --- | --- | --- | --- |
| 2460 | 88 | [2H]C1([2H])Cc2ncc(-c3ccnn3C)cc2C([2H])([2H])N1c1nnc(C#N)cc1C [Example 617, 5-methyl-6-(3-(1-methyl-1H-pyrazol-5-yl)-7,8-dihydro-1,6-naphthyridin-6(5H)-yl-5,5,7,7-d4)pyridazine-3-carbonitrile] |  |
| 1340 | 67 | COc1ccc(Oc2cnc3c(c2)CN(c2nc(C)nc(Cl)c2C)CC3)cn1 [compound 205, 6-(6-chloro-2,5-dimethyl-pyrimidin-4-yl)-3-[(6-methoxy-3-pyridyl)oxy]-7,8-dihydro-5H-1,6-naphthyridine] |  |
| 191 | 82 | Cc1c(C#N)nnc(N2CCc3ncc(Nc4cccnc4F)cc3C2)c1C [compound 119, 6-[3-[(2-fluoro-3-pyridyl)amino]-7,8-dihydro-5H-1,6-naphthyridin-6-yl]-4,5-dimethyl-pyridazine-3-carbonitrile] |  |
| 150 | 91 | Cc1cc(C#N)nnc1N1CCc2ncc(C3CCC3)cc2C1 [Example 402, 6-(3-cyclobutyl-7,8-dihydro-1,6-naphthyridin-6(5H)-yl)-5-methylpyridazine-3-carbonitrile] |  |
| 64 | 113 | Cc1cc(C(=O)N2CC3(COC3)C2)nnc1N1CCc2ncc(N3CCCn4nccc43)cc2C1 [Example 542, (6-(3-(6,7-dihydropyrazolo[1,5-a]pyrimidin-4(5H)-yl)-7,8-dihydro-1,6-naphthyridin-6(5H)-yl)-5-methylpyridazin-3-yl)(2-oxa-6-azaspiro[3.3]heptan-6-yl)methanone] |  |
| 43 | 81 | [2H]C([2H])(NC(=O)c1cc(C)c(N2CCc3ncc(C(F)(F)F)cc3C2)nn1)c1cscn1 [Example 507, 5-methyl-N-(thiazol-4-ylmethyl-d2)-6-(3-(trifluoromethyl)-7,8-dihydro-1,6-naphthyridin-6(5H)-yl)pyridazine-3-carboxamide] |  |
